ChEMBL document CHEMBL3351556, “Thee-component, one-pot synthesis of hexahydroazepino[3,4-b]indole and tetrahydro-1H-pyrido[3,4-b]indole derivatives and evaluation of their cytotoxicity” (Bioorg Med Chem Lett, 2014)

Tests used:
Assay type in all cases: functional, cell-based
[1] = test system: HeLa; experiment: Antiproliferative activity against human HeLa cells after 48 hrs by MTT/quantitative colorimetric method
[2] = test system: A549; experiment: Antiproliferative activity against human A549 cells after 48 hrs by MTT/quantitative colorimetric method; conditions: A549, 48 h
[3] = test system: DU-145; experiment: Antiproliferative activity against human DU145 cells after 48 hrs by MTT/quantitative colorimetric method; conditions: DU-145, 48 h
[4] = test system: MCF7; experiment: Antiproliferative activity against human MCF7 cells after 48 hrs by MTT/quantitative colorimetric method; conditions: MCF7, 48 h

Row | Structure (SMILES) | IC50 [1] | IC50 [2] | IC50 [3] | IC50 [4]
1 | Cn1c2c(c3ccccc31)CC(=O)N(c1ccc(F)cc1)C2C(=O)NC1CCCCC1 (configuration not stated) | 11 µM | 62 µM | 47 µM | 50 µM
2 | Cn1c2c(c3ccccc31)CCC(=O)N(c1ccc(F)cc1)C2C(=O)NC1CCCCC1 (configuration not stated) | 48 µM | 59 µM | 90 µM | 50 µM
3 | Cn1c2c(c3ccccc31)CC(=O)N(c1ccc(Cl)cc1)C2C(=O)NC(C)(C)C (configuration not stated) | 83 µM | 63 µM | > 100 µM | 96 µM
4 | Cn1c2c(c3ccccc31)CC(=O)N(c1cccc(F)c1)C2C(=O)NC1CCCCC1 (configuration not stated) | 25 µM | 85 µM | > 100 µM | 95 µM
5 | Cn1c2c(c3ccccc31)CCC(=O)N(c1ccc(Br)cc1)C2C(=O)NC1CCCCC1 (configuration not stated) | 63 µM | > 100 µM | 55 µM | 78 µM
6 | Cn1c2c(c3ccccc31)CCC(=O)N(c1ccc(F)cc1)C2C(=O)NC(C)(C)C (configuration not stated) | 46 µM | > 100 µM | 70 µM | 50 µM
7 | Cn1c2c(c3ccccc31)CC(=O)N(c1ccc(F)c(Cl)c1)C2C(=O)NC(C)(C)C (configuration not stated) | > 100 µM | 80 µM | 95 µM | > 100 µM
8 | Cn1c2c(c3ccccc31)CC(=O)N(c1ccc(Cl)cc1)C2C(=O)NC1CCCCC1 (configuration not stated) | 55 µM | 59 µM | 42 µM | > 100 µM
9 | Cc1ccc(C)c(N2C(=O)CCc3c(n(C)c4ccccc34)C2C(=O)NC2CCCCC2)c1 (configuration not stated) | > 100 µM | > 100 µM | > 100 µM | > 100 µM
10 | Cn1c2c(c3ccccc31)CCC(=O)N(c1ccc(F)c(Cl)c1)C2C(=O)NC(C)(C)C (configuration not stated) | 67 µM | 35 µM | 56 µM | > 100 µM
11 | Cc1ccc(C)c(N2C(=O)Cc3c(n(C)c4ccccc34)C2C(=O)NC2CCCCC2)c1 (configuration not stated) | > 100 µM | > 100 µM | > 100 µM | 95 µM
12 | Cn1c2c(c3ccccc31)CCC(=O)N(c1ccc(F)c(Cl)c1)C2C(=O)NC1CCCCC1 (configuration not stated) | > 100 µM | > 100 µM | 82 µM | 54 µM
13 | Cc1ccc(C)c(N2C(=O)Cc3c(n(C)c4ccccc34)C2C(=O)NC(C)(C)C)c1 (configuration not stated) | 95 µM | 49 µM | 63 µM | 87 µM
14 | Cn1c2c(c3ccccc31)CCC(=O)N(c1ccc(Cl)cc1)C2C(=O)NC(C)(C)C (configuration not stated) | 13 µM | 18 µM | 21 µM | 18 µM
15 | Cn1c2c(c3ccccc31)CCC(=O)N(c1ccc(Cl)cc1)C2C(=O)NC1CCCCC1 (configuration not stated) | 12 µM | 27 µM | 13 µM | 29 µM
16 | Cn1c2c(c3ccccc31)CCC(=O)N(c1cccc(F)c1)C2C(=O)NC1CCCCC1 (configuration not stated) | 44 µM | > 100 µM | 52 µM | 94 µM
17 | Cn1c2c(c3ccccc31)CC(=O)N(c1ccc(F)cc1)C2C(=O)NC(C)(C)C (configuration not stated) | 26 µM | > 100 µM | 78 µM | 61 µM
18 | Cn1c2c(c3ccccc31)CC(=O)N(c1ccc(Br)cc1)C2C(=O)NC1CCCCC1 (configuration not stated) | 49 µM | > 100 µM | 45 µM | 52 µM
